From patent US11292786B2, “Pyrimidine compounds and pharmaceutical compositions for preventing or treating cancers including the same” (HANMI PHARM. CO., LTD., priority 2018, dated 2022)

Tests used:
[1] = Microsomal stability, human liver microsomes; type: in vitro ADME; details: residual amount % after 1 hour at 37° C., 5 μM, 1 mg/ml human liver microsomes, NADPH regenerating system
Experimental: To confirm the reactivity of the test substances with intra-hepatic CYP450 enzymes, 5 μM test substances and 1 mg/ml human liver microsomes were incubated for 1 hour at a temperature of 37° C. in the presence of an NADPH regenerating system. After 1 hour, acetonitrile was added to terminate the reaction, and the supernatant obtained by centrifugation was analyzed by HPLC. The remaining amount % was calculated using the following equation using the value of the reacted sample for 1 hour relative to the value of the 0-minute sample as the peak value obtained as an analysis result. (Peak value of the sample reacted for 1 hour/peak value of the sample at 0 minutes)×100=residual amount %.

[2] = Microsomal stability, mice microsomes; type: in vitro ADME; details: residual amount % after 1 hour at 37° C., 5 μM, NADPH regenerating system

Human microsomal stability (%) [1] | Mice microsomal stability (%) [2] | SMILES
49% | 29% | CCN(CC)C1CCN(c2cc(Nc3ncc(Cl)c(-c4c[nH]c5cc(C)ccc45)n3)cc(C3CC3)c2)CC1 [Control Compound 6]
72% | 69% | Cc1ccc2c(-c3nc(Nc4cc(CN5C[C@@H](C)NC6(CC6)C5)cc(C5CC5)c4)ncc3Cl)c[nH]c2c1 [Example 27, (R)-5-chloro-N-(3-cyclopropyl-5-((5-methyl-4,7-diazaspiro[2.5]octan-7-yl)methyl)phenyl)-4-(6-methyl-1H-indole-3-yl)pyrimidine-2-amine]
